Laboratory results taken from patent US6916970B2, “Transgenic plants comprising antifungal polypeptides from alfalfa and methods for controlling plant pathogenic fungi” (Monsanto Technology, LLC, priority 1996, dated 2005).

Legend:
[1] = test system: Verticillium dahliae; test: Inhibition of fungal hyphal growth (microscopic hyphal length assay); assay type: cell-based; conditions: V. dahliae
Protocol: (§1) The antifungal activity of AlfAFP1 (SEQ ID NO:2) is expressed as the concentration in μg/ml required to cause 50% inhibition of fungal hyphal growth (IC50). Percent fungal hyphal growth inhibition is defined as […] of the average hyphae length in the test sample culture divided by the average hyphae length in the control culture in which buffer is added in place of the polypeptide sample.
(§2) The antifungal activity of AlfAFP1 was determined by measuring the inhibition of fungal hyphal length of a number of different fungi in the presence of this polypeptide under an inverted microscope. Fungal spores (2×10^4 spores/ml) were allowed to germinate for 5 to 15 hours, depending on the fungus used in the test, in 50 μl of double strength testing medium. […] For studies on the antagonistic effect of cations, CaCl2 and KCl were added to final concentrations of 1 mM and 50 mM, respectively. This salt-supplemented medium is referred to as “high salt medium,” and the original medium is referred to as “low salt medium.” After spore germination, 50 μl of a filter-sterilized solution of polypeptide in distilled water were added to the testing well containing the germinated spores, and the mixture was incubated for 15 to 24 hours at 24° C. AlfAFP1 was tested in a concentration range from 0 to 80 μg/ml to determine IC50 values. Polypeptide concentrations were determined using the BCA protein assay kit obtained from Pierce (Rockford, Ill.).

[2] = test system: Fusarium culmorum; test: as above; assay type: cell-based; conditions: F. culmorum
Protocol: as §1, §2

[3] = test system: Verticillium dahliae; test: Verticillium wilt disease test on transgenic potato plants expressing AlfAFP1; assay type: in vivo, potato plants (Solanum tuberosum var. Russet Burbank)
Protocol: Conidia and mycelia of a 2-3 week old culture of virulent Verticillium dahliae were used to inoculate a PDA (potatoes, 200 g/l; Bacto dextrose, 20 g/l; and Bacto agar, 15 g/l) Petri plate. This culture was allowed to grow at 22° C. for 4-5 days. Conidia were then harvested by washing the culture plate with sterile distilled water and filtering the liquid through two layers of cheesecloth. The conidial spore concentration was determined using a hemacytometer, and adjusted to 1×10^6 conidia/ml with sterile distilled water.
Transgenic and non-transgenic potato plants were grown from stem cuttings under sterile conditions as described above in plastic cups containing 50 mls of PM-agar medium. When plants were about 1-2 inches tall, they were removed from the medium and their roots were dipped in the spore suspension (Joaquim et al., 1991). The inoculated plants were then transplanted into 6-inch pots containing Metro-Mix 350 soil. After transplanting, each plant received an additional 5 mls of the spore suspension (1×10^6 condida/ml) on the soil surface around the base of the stem. The pots were placed in a growth chamber under the following conditions: temperature at 20° C., light intensity at […], 12 hr day/12 hr night light cycle, subirrigation with water 2 times/day, 20 minutes soaking each time. Four weeks after inoculation, the plants were scored for disease severity on a scale of 0-100% (Horsfall et al., 1945). To develop a disease progress curve over time, plants were rated once a week for at least 8 weeks.
Twenty-one independent transgenic potato lines expressing AlfAFP1 were tested for resistance to Verticillium wilt disease. […]
Table 2 summarizes the qualitative protein expression data for each of the lines, and the disease severity rating of each individual line in the Verticillium wilt disease test determined at 46 days post inoculation. […]

[4] = high salt medium (1 mM CaCl2 and 50 mM KCl added)

## AlfAFP1: antifungal polypeptide of 45 amino acids isolated from alfalfa (Medicago) seed, SEQ ID NO:2, about 5,186 daltons (RTCENLADKYRGPCFSGCDTHCTTKENAVSGRCRDDFRCWCTKRC; Alfalfa)
[1]; [4]
  IC50 (concentration required to cause 50% inhibition of fungal hyphal growth), High salt: 15 µg/mL
[1]; low salt medium
  IC50 (concentration required to cause 50% inhibition of fungal hyphal growth), Low salt: 4 µg/mL
[2]; [4]
  IC50 (concentration required to cause 50% inhibition of fungal hyphal growth), High salt: 15 µg/mL
[2]; low salt medium
  IC50 (concentration required to cause 50% inhibition of fungal hyphal growth), Low salt: 1 µg/mL
[3]; AlfAFP1 expressing potato lines, 46 days post inoculation, controls 1 out of 21 and 1 out of 18
  Lines with disease severity rated equal to or less than 30%: Thirteen out of 21
[3]; average of 21 AlfAFP1 positive potato lines, non-expressors 62.7, vector control 62.2
  Average Disease Severity (%) (46 Days Post Inoc.): 29.6%
[3]; average of 21 expressor lines versus 21 non-expressor lines or 18 vector control lines, 46 days post inoculation
  Disease severity less than that of the non-expressors or the vector controls: 52%
